Where two headings read alike, the source gives them in different places.

The conditions of series [1]: cited from earlier work.
The nature of series [2]: Pharmacokinetics of Cy5 dye and nanobody-Cy5 conjugates in healthy mice. The series is classed as in vivo, mouse. As to conditions: 2 mg/kg I.V., healthy female C57BL/6 mice. On the procedure:
Pharmacokinetics and Ex Vivo Imaging Experiments. Healthy (Balb/c or C57BL/6) and EMT6 tumor bearing (Balb/c) mice were injected with 100 μL of Cy5 (either as free dye or as a nanobody conjugate) at a dose of 2 mg/kg intravenously. Blood draws were taken using heparinized capillary tubes (DWK Life Sciences) at discrete time points up to five days after injection. 1 μL of blood was mixed with 50 μL of PBS, centrifuged, and the diluted plasma was collected for analysis. Prescence of Cy5 was determined by fluorescence intensity using a plate reader, with an excitation wavelength of 645 nm and an emission wavelength of 675 nm. Pharmacokinetic analysis was performed in GraphPad Prism (V10) using either a one-phase decay or two-phase decay, in which the reported half-life is the second phase (elimination). Biodistribution studies were performed by excising and weighing hearts, lungs, livers, spleens, kidneys, and tumors. Tissue were washed in 1× PBS and transferred to the stage of the IVIS Lumina Ill (PerkinElmer). Fluorescence (radiant efficiency) was measured with a maximum value of 1.56×10^10, and a minimum of 8.21×10^8, and areas were drawn for organs to generate average radiant efficiency values (per cm^2) using the Living Image software (version 4.5). […] Images were taken on the IVIS and luminescence was quantified as total radiant flux (p/s) for each set of lungs.

Another series has as its system EMT6 tumors. Put plainly: Orthotopic EMT6 breast tumor model. The series is classed as in vivo, mouse. Conditions: nanobody carriers I.V. 1.25 μg agonist; ICB 100 μg intraperitoneally; Balb/c. The method, then: Evaluation of Nanobodies in Tumor Models. 6-8-week C57BL/6 mice (The Jackson Laboratory) were inoculated with B16.F10, B16.F10-LUC, or B16.F10-OVA models. For EMT6 models, 6-8 week Balb/C female mice (The Jackson Laboratory) were used. Tumors were generated in B16.F10 and B16.F10-OVA models by subcutaneous injection of 5×10^5 cancer cells, suspended in 100 μL of PBS, at the right flank side of the mouse. B16.F10-LUC inoculations were performed by intravenous (I.V.) injection at a volume of 100 μL and using 1×10^6 cancer cells. EMT6 inoculations were orthotopic and placed at the left-side 4th mammary fat pad at a volume of 100 μL and using […]. When the volume of tumors reached ~75-100 mm^3, mice were treated by I.V. injection of nanobodies or free diABZT compound 3 (using 40% PEG400 as an excipient for free diABZI, Sigma), or intraperitoneal (I.P) injection of commercial anti-PD-L1 IgG (Clone BEO101, Bio X Cell) (100 μL per injection). Tumor volume calculations were calculated using Vtumor=L×W2×0.5, in which Vtumor is tumor volume, L is tumor length, and W is tumor width. Tumor volume, total murine mass, and murine well-being were recorded for the duration of the study. The endpoint for maximum tumor volume (i.e. survival) during studies was 1500 mm^3.

For the compound serum albumin, in series [1] (in mice), the half-life was 35 to 40 h.
For the compound `CC1(C)C(/C=C/C=C/C=C2/N(CCCCCC(=O)NCCC(=O)N3Cc4ccccc4C#Cc4ccccc43)c3ccc(S(=O)(=O)O)cc3C2(C)C)=[N+](CCCS(=O)(=O)[O-])c2ccc(S(=O)(=O)O)cc21` [DBCO-Cy5, reference compound], the elimination half-life entry in series [2] is “approximately 5 minutes”.
On to `CCn1nc(C)cc1C(=O)Nc1nc2cc(C(N)=O)cc(OC)c2n1C/C=C/Cn1c(NC(=O)c2cc(C)nn2CC)nc2cc(C(N)=O)cc(OCCCN3CCOCC3)c21` [diABZI, reference compound], for which the tumor growth result with EMT6 tumors is recorded as “did not confer a therapeutic benefit”. For the same compound, the half-life in series [1] (in vivo) is ~ 90 minutes.

For orientation: half-life means the time needed for the level to fall by half in the phase considered.

Values taken from patent publication US20260216361A1, “NANOBODY-DRUG CONJUGATES AND METHODS OF PREPARING THEREOF” (Vanderbilt University, priority 2022, published 2026).
